Data from ChEMBL document CHEMBL4339215, “Inhibition of PCSK9D374Y/LDLR Protein-Protein Interaction by Computationally Designed T9 Lupin Peptide” (ACS Med Chem Lett, 2019).
Calls of active or inactive are those of the source. No cut-off for these calls is given here.

Legend:
[1] = tested on: PCSK9/LDLR (Homo sapiens), Q8NBP7+P01130 [D374Y]; assay: (§1) Binding affinity to C-terminal His tagged purified recombinant PCSK9 D374Y mutant (unknown origin) expressed in HEK293 cells assessed as dose dependent reduction in PCSK9/LDLR protein-protein interaction at 0.1 uM to 1 mM uM by chemiluminescent assay
[2] = tested on: PCSK9/LDLR (Homo sapiens), Q8NBP7+P01130 [D374Y]; assay: Binding affinity to C-terminal His tagged purified recombinant PCSK9 D374Y mutant (unknown origin) expressed in HEK293 cells assessed as reduction in PCSK9/LDLR protein-protein interaction at 100 uM by chemiluminescent assay
[3] = tested on: PCSK9/LDLR (Homo sapiens), Q8NBP7+P01130 [D374Y]; assay: Potency index, ratio of T9 to test compound for inhibition of C-terminal His tagged purified recombinant PCSK9 D374Y mutant (unknown origin) and LDLR protein-protein interaction expressed in human HepG2 cells assessed as LDL-C uptake level at 10 uM incubated for 2 hrs by fluorescent LDL uptake cell-based assay
[4] = tested on: PCSK9/LDLR (Homo sapiens), Q8NBP7+P01130 [D374Y]; assay: Inhibition of C-terminal His tagged purified recombinant PCSK9 D374Y mutant (unknown origin) and LDLR protein-protein interaction expressed in human HepG2 cells assessed as LDLR protein expression level at cell surface at 10 uM incubated for 2 hrs by in-cell western analysis (reference value: 39.6 +/- 0.7%); assay type: cell-based; parameters: scale not given: the % may be the effect or the level left
[5] = tested on: PCSK9/LDLR (Homo sapiens), Q8NBP7+P01130 [D374Y]; assay: Inhibition of C-terminal His tagged purified recombinant PCSK9 D374Y mutant (unknown origin) and LDLR protein-protein interaction expressed in human HepG2 cells assessed as LDL-C uptake level at 10 uM incubated for 2 hrs by fluorescent LDL uptake cell-based assay (42.1 +/- 1.6%); parameters: scale not given: the % may be the effect or the level left
PCSK9/LDLR = PCSK9/LDLR (Homo sapiens, UniProt Q8NBP7, D374Y); assay: as §1
[6] = tested on: PCSK9/LDLR (Homo sapiens), Q8NBP7+P01130 [D374Y]; assay: Inhibition of C-terminal His tagged purified recombinant PCSK9 D374Y mutant (unknown origin) and LDLR protein-protein interaction expressed in human HepG2 cells assessed as LDLR protein expression level at cell surface at 10 uM incubated for 2 hrs by in-cell western analysis relative to T9 peptide; assay type: cell-based; parameters: scale not given: the % may be the effect or the level left

Chain of PCSK9/LDLR (Q8NBP7 whole entry D374Y, looked up): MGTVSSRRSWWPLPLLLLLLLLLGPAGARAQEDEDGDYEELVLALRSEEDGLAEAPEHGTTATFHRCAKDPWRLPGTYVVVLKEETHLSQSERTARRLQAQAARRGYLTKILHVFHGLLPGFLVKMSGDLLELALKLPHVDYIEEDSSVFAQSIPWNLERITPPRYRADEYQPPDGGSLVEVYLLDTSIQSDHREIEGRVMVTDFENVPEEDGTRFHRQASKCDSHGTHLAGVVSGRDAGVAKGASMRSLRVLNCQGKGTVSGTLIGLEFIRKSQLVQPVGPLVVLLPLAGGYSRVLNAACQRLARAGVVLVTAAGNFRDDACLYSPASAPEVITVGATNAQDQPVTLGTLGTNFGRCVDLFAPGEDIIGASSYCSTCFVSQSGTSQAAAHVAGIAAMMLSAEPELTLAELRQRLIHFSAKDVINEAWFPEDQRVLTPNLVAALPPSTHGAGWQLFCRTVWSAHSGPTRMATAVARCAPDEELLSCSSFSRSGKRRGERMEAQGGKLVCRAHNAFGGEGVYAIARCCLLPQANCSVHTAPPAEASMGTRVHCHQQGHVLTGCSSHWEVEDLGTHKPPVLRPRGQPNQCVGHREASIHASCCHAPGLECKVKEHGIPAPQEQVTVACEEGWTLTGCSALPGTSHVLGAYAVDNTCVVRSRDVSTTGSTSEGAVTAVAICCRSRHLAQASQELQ

inhibition [1] | inhibition [2] | Ratio [3] | Activity [4] | Activity [5] | IC50 (PCSK9/LDLR) | Activity [6] | Compound
inactive | 31.3% |  |  |  |  |  | CC[C@H](C)[C@H](NC(=O)[C@@H](NC(=O)CNC(=O)[C@H](CCC(=O)O)NC(=O)[C@H](C)NC(=O)[C@H](CCC(N)=O)NC(=O)[C@H](Cc1cnc[nH]1)NC(=O)[C@H](CO)NC(=O)[C@H](CCC(N)=O)NC(=O)[C@H](CCC(=O)O)NC(=O)[C@H](CCC(N)=O)NC(=O)CN)C(C)C)C(=O)N[C@H](C(=O)N[C@@H](CCCNC(=N)N)C(=O)O)C(C)C
Dose-dependent effect |  | 35 | 83.8% | 102% | 148 µM | 12.7% | H-GQRQWKQAEGVMVR-OH
